{"source": "patent US20150291597A1", "about": "“NOVEL ORALLY BIOAVAILABLE BREATHING CONTROL MODULATING COMPOUNDS, AND METHODS OF USING SAME” (Galleon Pharmaceuticals, Inc., priority 2012, published 2015)", "key": {"[1]": {"experiment": "Pharmacokinetics and oral bioavailability in the rat (IV and PO dosing, plasma LC-MS/MS)", "format": "in vivo, Sprague-Dawley rats", "settings": "Sprague-Dawley, oral versus intravenous dosing", "procedure": "Sprague-Dawley rats (200-300 g) were fed a standard laboratory rodent diet and housed in individual cages on a 12-hour light and 12-hour dark cycle with room temperature maintained at 22±3° C. and relative humidity at 50±20%. Rats were fasted overnight before dosing, with food returned after the 6 hour blood samples were obtained. Bedding was removed until after the 6 hour blood samples were obtained. Water was provided ad libitum throughout the study.\nDosing solution of test compound was prepared in desired oral formulation for oral administration via gavage needle at 10-30 mg/kg (10 mL/kg) to three or four rats. All blood samples (250 uL per sample) were taken via jugular vein or femoral vein at 0 (predose), 15, and 30 min and 1, 2,4, 6, 8, and 24 h after oral dosing. […]\nPlasma samples (incurred study samples, calibration standards, quality controls) were normally prepared as follows. […] Calibration standards were typically prepared in the range of 2 ng/ml to 10 μg/mL for quantitation. […]\nAll pharmacokinetic parameters were determined based on a non-compartmental approach using WinNonlin software (Pharsight, Version 5.1). The terminal elimination half-life (t1/2) was calculated as ln2/λz using the slope (λz) from linear regression analysis of the terminal phase of the plasma concentration-time curve on a semi-log scale. […]"}, "anesthetized rats": {"tested_on": "anesthetized rats", "experiment": "Anesthetized rat spirometry screening assay (respiratory rate, tidal volume, minute volume; IV bolus)", "format": "in vivo", "settings": "0.3 mg/kg IV bolus", "excerpt": "Anesthetized rats provide a quick method of screening compounds for respiratory and cardiovascular activity. In contrast to the conscious rat model, this model offers an experimental set up with less variation in the baseline cardiovascular and respiratory measures. Compounds screened in this assay may be examined in a conscious rat model.\nRats were initially anesthetized with 3% isoflurane (inhaled) and femoral artery and vein cannulas were surgically inserted. Once cannulated, the rats were transitioned to urethane anesthesia (1.5 g/kg; i.v.) and a tracheal cut-down was performed. After placing the tracheal cannula, it was connected to a pneumotach to record respiratory airflow from which respiratory rate (RR), tidal volume (VT), and their product minute volume were derived. After the surgical preparation was complete, animals were allowed to stabilize for 30 minutes while respiratory rate, tidal volume, minute volume, blood pressure and heart rate were recorded continuously. Arterial blood gases (ABG) were obtained from arterial blood collected from the femoral artery. ABG measurements were taken before and 6 minutes after vehicle and each dose of compound administered. Compounds being screened were administered via bolus injections through the venous cannula followed by a saline flush (total time of administration is approximately 30 seconds), and the animal was monitored for at least 6 minutes for changes in cardiovascular efforts. Compounds were prepared in formulations identified to ensure optimal solubility. As such, vehicle controls were matched for the formulation of each compound tested. Dosing of the compound being screened was 0.1 and 0.3 mg/kg. The next dose was not administered until all cardiovascular and respiratory measures had returned to baseline levels. The positive control compounds used were N-[4,6-di-(n-propylamino)-[1,3,5]triazin-2-yl]-O,N-dimethyl-hydroxylamine or N-[2,6-di-(n-propylamino)-[1,3]pyrimidin-4-yl]-O,N-dimethyl-hydroxylamine, both administered at the end of each screening experiment (0.3 mg/kg dose) to validate the experiment and also to serve as a measure with which the compound being screened could be compared.\nData were analyzed by collecting cardiovascular and respiratory data in 30 second averages (BINs). Data were plotted 2 minutes before challenge and then 6 minutes after challenge.\nFIGS. 2A-2F summarize the effects of individual compounds on peak minute ventilation (increase in VE), overall increase in 2 minute area under the curve (AUC) which is a cumulative measure of effect, along with compound stability (half-life) in rat and human microsomes."}}, "data": [{"compound": "C#CCNc1nc(NCCC)nc(N(C)OC)n1.Cl", "note": "[Compound 5a, O,N-Dimethyl-N-[4-(n-propylamino)-6-(prop-2-ynylamino)-[1,3,5]triazin-2-yl]-hydroxylamine hydrochloride]", "values": [{"measurement": "bioavailability", "setting": "[1]", "value": 36, "unit": "%"}, {"measurement": "duration of the increase in minute ventilation", "setting": "anesthetized rats", "value": "approximately 2 minutes"}, {"measurement": "increase in minute ventilation above baseline values", "setting": "anesthetized rats", "value": "up to 143%"}, {"measurement": "increase in respiratory rate", "setting": "anesthetized rats", "value": "up to 42%"}, {"measurement": "increase in tidal volume", "setting": "anesthetized rats", "value": "up to 73%"}]}]}
